Laboratory results published in patent US11021413B2, “Benzylpropargylether as nitrification inhibitors” (BASF SE, priority 2014, dated 2021).

What follows are compounds tested on nitrification (assay: Inhibition of nitrification in soil (48 well plate, ammonium sulfate, colour reaction read at 540 nm)). Conditions: dose of 5±1 ppm; field soil; up to 72 hrs at room temperature; compared to control (DMSO only).
Experimental: The compounds of the invention have been tested as follows in terms of the inhibition of nitrification:
Soil was sampled fresh from a field (e.g. Limburgerhof), dried and sieved through a 500 μm sieve. Approximately 200 mg of soil were placed into each well of a 48 well plate. […] 6 μmol ammonium sulfate was added per well as well as 4.8 mg NaClO3.
Subsequently, the samples were incubated at room temperature for up to 72 hrs. After the incubation period 64 mg KCl were added and mixed. 25 μl of the supernatant were placed into a fresh plate and 260 μl of a color reaction solution (from Merck Nr 1.11799.0100) were added. Measurements were taken with a Tecan plate Reader at 540 nm wavelength.
Inhibition is calculated as x=% activity compared to control, and converted to 100-x to give the value of inhibition, rather than activity.

SMILES	IN (best inhibition value obtained for a compound) [%]
C#CCOCc1ccc(COCC#C)cc1 [Compound 1-23]	18
C#CCOCc1ccc(OC(C)C)cc1 [Compound 1-24]	18
C#CCOCc1ccc(F)cc1 [Compound 1-25]	87
C#CCOCc1ccc(OCC)cc1 [Compound 1-26]	69
C#CCOCc1ccc(OCCC)cc1 [Compound 1-27]	59
C#CCOCc1ccccc1 [Compound 1-28]	88
C#CCOCc1ccc(C)cc1 [Compound 1-29]	37
C#CCOCc1ccc(C#N)cc1 [Compound 1-30]	25
C#CCOCc1ccc(C(=O)O)cc1 [Compound 1-31]	18
C#CCOCc1ccc(I)cc1 [Compound 1-32]	53
C#CCOCc1ccc(C(=O)N(C)C)cc1 [Compound 1-33]	24

Same assay, conditions: dose of 10 ppm; field soil; up to 72 hrs at room temperature; compared to control (DMSO only)

SMILES	IN (best inhibition value obtained for a compound) [%]
C#CCOCc1ccc(OC)c(OC)c1 [Compound 1-1]	15
C#CCOCc1ccc(Br)cc1 [Compound 1-2]	48
C#CCOCc1ccc(Oc2ccccc2)cc1 [Compound 1-3]	11
C#CCOCc1ccc(Oc2ccc(F)cc2)cc1 [Compound 1-4]	15
C#CCOCc1ccccc1F [Compound 1-5]	27
C#CCOC(Cn1cncn1)c1ccc(Oc2ccc(Cl)cc2)cc1Cl (stereo not shown) [Compound 1-6]	10
C#CCOC(Cn1cncn1)c1ccc(Oc2ccc(Cl)cc2)cc1C(F)(F)F (stereo not shown) [Compound 1-7]	11
C#CCOCc1ccc(OC)cc1 [Compound 1-8]	57
C#CCOCc1cccc(OC)c1 [Compound 1-9]	20
C#CCOCc1ccc(Cl)cc1Cl [Compound 1-10]	14
C#CCOC(Cn1cncn1)c1ccc(Br)cc1 (stereo not shown) [Compound 1-12]	15
C#CCOC(Cn1cncn1)c1ccc(F)cc1 (stereo not shown) [Compound 1-13]	10
C#CCOCc1ccc(Cl)cc1C [Compound 1-14]	56
C#CCOCc1ccc(Cl)cc1 [Compound 1-15]	58
C#CCOCc1ccc(Oc2ccc(Cl)cc2)cc1 [Compound 1-16]	11
C#CCOC(Cn1cncn1)c1ccc(Oc2ccc(Cl)cc2)cc1 (stereo not shown) [Compound 1-18]	10
C#CCOC(Cn1cncn1)c1cc(OC)c(OC)c(OC)c1 (stereo not shown) [Compound 1-20]	10
C#CCOC(c1ccccc1)C(CCCC)n1cncn1 (stereo not shown) [Compound 1-21]	20
C#CCOC(CC(n1cncn1)C(C)(C)C)c1ccc(Cl)cc1Cl (stereo not shown) [Compound 1-22]	11

Same assay, conditions: dose of 10 ppm; same conditions as Example 1.1

SMILES	IN (inhibition value), comparative example [%]
C#Cc1ccccc1 [Phenylacetylene, phenylacetylene, reference compound]	7
